Measurements from patent US20100105637A1, “Drug-surfactant complexes for sustained release” (priority 2005, published 2010).
Structures can show the parent of a compound that is named as a salt.

Test: Fractional release of drug from tablets into stirred aqueous solution, measured by uv/vis spectroscopy
Assay type: physicochemical
Details: 150 mg tablets without binders or excipients, pH 7.0 water, stirred at 100 rpm (FIG. 1)
Procedure: The tablets were placed into pH 7.0 water and stirred with a stirrer at 100 rpm. Fractional release was determined by uv/vis spectroscopy of the aqueous solution at 278 nm to measure the concentration of diltiazem in solution.
The tablets were placed in pH 7.0 water and stirred at 100 rpm, and fractional release was measured as above.
The drug-bile complex was pressed into tablets without any binders or excipients as in Example 1.

Compound: COc1ccc([C@@H]2Sc3ccccc3N(CCN(C)C)C(=O)[C@@H]2OC(C)=O)cc1 [diltiazem-HCl, Diltiazem-HCl]
- amount of diltiazem released at the first time point: all
